Values after ≈ are worked out from the molar mass of the structure shown. Like-named read-outs stand apart in the source and are kept apart here. Starred links: 1 amine or outer side, 2 acyl side, 3 side chain; linkers in the order of their positions; H or OH if unused. Non-standard residues stand in square brackets, D forms with d. Residues, ends and D or L forms follow the SMILES beside them. Groups on a side chain read outwards from the residue. *: point of attachment. X5 = CCCCCCCCCCCCCCCC(=O)N[C@@H](CCC(=O)N[C@@H](CCC(=O)N[C@@H](CCC(=O)NCCCOCCOCCOCCCNC(=O)CCC(=O)NCCCOCCOCCOCCCNC(=O)CCC(=O)NCCCOCCOCCOCCCNC(=O)CCC(=O)NCCCOCCOCCOCCCN*)C(=O)O)C(=O)O)C(=O)O; X1 = CCCCCCCCCCCCCCCC(=O)N[C@@H](CCC(=O)N[C@@H](CCC(=O)N[C@@H](CCC(=O)NCCCOCCOCCOCCCNC(=O)CCC(=O)NCCCOCCOCCOCCCNC(=O)CCC(=O)NCCCOCCOCCOCCCN*)C(=O)O)C(=O)O)C(=O)O; X2 = CCCCCCCCCCCCCCCC(=O)N[C@@H](CCC(=O)N[C@@H](CCC(=O)N[C@@H](CCC(=O)NCCCOCCOCCOCCCNC(=O)CCC(=O)NCCCOCCOCCOCCCN*)C(=O)O)C(=O)O)C(=O)O; γGlu = O=C(O)[C@H](CCC(=O)[*:2])N[*:1]; Palmitoyl = CCCCCCCCCCCCCCCC(=O)*; Suc = O=C(CCC(=O)[*:2])[*:1]; αMeK = C[C@](N)(CCCCN)C(=O)O; AEEA = NCCOCCOCC(=O)O; Aib = CC(C)(N)C(=O)O
Columns and labels:
[1] = target: T1, RXFP1 (Homo sapiens, UniProt Q9HBX9); experiment: OVCAR5 cAMP assay (HTRF); format: cell-based; details: for EC50: OVCAR 5 cells expressing endogenous RXFP1, cAMP readout; for Emax: OVCAR 5 cells, maximal cAMP relative to H2-relaxin
T1 construct: OVCAR5 cells expressing endogenous RXFP1; endogenous in cells; host or cells: OVCAR5
T1 sequence (Q9HBX9 1-757): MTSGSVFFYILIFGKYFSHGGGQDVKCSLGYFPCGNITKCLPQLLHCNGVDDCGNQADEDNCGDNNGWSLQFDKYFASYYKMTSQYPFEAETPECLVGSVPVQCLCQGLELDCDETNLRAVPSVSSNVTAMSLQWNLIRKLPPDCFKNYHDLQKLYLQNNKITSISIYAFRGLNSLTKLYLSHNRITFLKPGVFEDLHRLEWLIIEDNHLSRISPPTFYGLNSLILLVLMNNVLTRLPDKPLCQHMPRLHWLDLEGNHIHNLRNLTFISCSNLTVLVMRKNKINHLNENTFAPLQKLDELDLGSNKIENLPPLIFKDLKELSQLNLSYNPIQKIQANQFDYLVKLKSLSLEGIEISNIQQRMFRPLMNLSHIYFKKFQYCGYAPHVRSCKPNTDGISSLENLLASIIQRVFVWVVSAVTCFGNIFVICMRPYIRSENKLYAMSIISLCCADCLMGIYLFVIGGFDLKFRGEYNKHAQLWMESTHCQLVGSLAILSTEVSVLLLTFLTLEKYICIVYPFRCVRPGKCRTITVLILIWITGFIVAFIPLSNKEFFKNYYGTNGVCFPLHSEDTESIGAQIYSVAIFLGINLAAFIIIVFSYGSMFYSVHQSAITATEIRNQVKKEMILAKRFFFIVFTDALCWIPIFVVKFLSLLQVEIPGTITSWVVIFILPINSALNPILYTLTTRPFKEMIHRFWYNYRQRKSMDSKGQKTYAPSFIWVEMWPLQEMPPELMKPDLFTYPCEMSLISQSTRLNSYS
Outline: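 Endogenous RXFP1 in OVCAR5 cells, pretreated 40 min at 37° C with 1 mM IBMX, then exposed to increasing peptide concentrations in serum-free medium for 30 min at 37° C. cAMP read by HTRF; EC50 by variable-slope sigmoidal fit, Emax as % of H2-relaxin maximal cAMP in same run.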

[2] = Solubility testing in buffer; format: physicochemical; details: target solubility 10.0 mg/ml
Description: Prior to the testing of solubility of a peptide batch, its purity (HPLC-UV) was determined.
Acetate Buffer 50 mM pH4.5: 0.75 g C2H3C02Na,3H2O (Sigma S7545)+0.35 ml CH3CO2H 100% solution dissolved in Millipore water, adjusted to pH with diluted (1:1) CH3CO2H and diluted to 250 ml with Millipore water.
In a 4 ml Ependorph vial, an accurately weighed sample of compound was diluted in study media to obtain target concentration of 2, 6 or 10 mg/ml of pure compound. The sample vials were shacked (rock 'roll shaker) for ˜19 h. 300 μL aliquots were filtered through a Millipore “Solvinert” plate (0.45 μm-PTFE hydrophilic).
pH was measured with a micro electrode
Waters Acquity UPLC System with DAD detector
Column: Waters Peptide Column CSH C18 (130 Å; 1.7 μm; 50*2.1 mm)
Column temperature: 60° C.
Full loop (about 5 μL)—overfill factor 5
Weak et Strong wash: H2O/ACN (75/25; V/V); Seal wash: H2O/IsOH (95/5; V/V). Mobile phase:
Solvent A: 0.05% TFA in H2O; Solvent B: 0.035% TFA in CH3CN
Gradient: from 0 to 12 min B=2% to 60%, from 12 to 14 min B=60% to 100%. Column washing 100% B 1 min, column equilibration 2% B 2.5 min.
UV detector: wavelength: 220 nm.

[3] = acetate buffer 50 mM pH 4.5, read-out: Solubility Acetate buffer pH 4.5
[4] = phosphate buffer 50 mM pH 7.4, read-out: Solubility phosphate buffer pH 7.4

Row | SMILES | EC50 [1] | Emax [1] | solubility [2, 3] | solubility [2, 4]
1 | CCCCCCCCCCCCCCCC(=O)N[C@@H](CCC(=O)N[C@@H](CCC(=O)N[C@@H](CCC(=O)NCCOCCOCC(=O)NCCOCCOCC(=O)NCCOCCOCC(=O)NCCOCCOCC(=O)NCCCC[C@H](NC(=O)CNC(=O)[C@H](CCC(=O)O)NC(=O)C(C)(C)NC(=O)C(C)(C)NC(=O)[C@@H](NC(=O)[C@H](CCCCNC(C)=O)NC(=O)[C@H](C)NC(=O)[C@H](CCCNC(=N)N)NC(=O)[C@@H](NC(=O)[C@H](CCCCN)NC(=O)[C@H](CCC(=O)O)NC(=O)[C@H](CCCNC(=N)N)NC(=O)CNC(=O)[C@H](CCC(=O)O)NC(=O)[C@H](CC(C)C)NC(C)=O)C(C)C)[C@@H](C)CC)C(=O)N[C@@H](CO)C(=O)N[C@H](C(=O)N[C@@H](Cc1c[nH]c2ccccc12)C(=O)N[C@@H](CO)C(=O)NC(C)(C)C(=O)N[C@@H](CCCNC(=N)N)C(=O)N[C@@H](CCCCN)C(=O)N[C@@H](CCCCNC(C)=O)C(N)=O)[C@@H](C)O)C(=O)O)C(=O)O)C(=O)O [compound 5] (Ac-LEGREKVRAK(Ac)I[Aib][Aib]EGK([AEEA-AEEA-AEEA-AEEA-γGlu-γGlu-γGlu-Palmitoyl])STWS[Aib]RKK(Ac)-NH2) | 9.1 nM | 85% | 6240 µg/mL (≈ 1530 µM) | 6410 µg/mL (≈ 1570 µM)
2 | CCCCCCCCCCCCCCCC(=O)N[C@@H](CCC(=O)N[C@@H](CCC(=O)N[C@@H](CCC(=O)NCCCOCCOCCOCCCNC(=O)CCC(=O)NCCCOCCOCCOCCCNC(=O)CCC(=O)NCCCC[C@H](NC(=O)CNC(=O)[C@H](CCC(=O)O)NC(=O)C(C)(C)NC(=O)C(C)(C)NC(=O)[C@@H](NC(=O)[C@H](CCCCNC(C)=O)NC(=O)[C@H](C)NC(=O)[C@H](CCCNC(=N)N)NC(=O)[C@@H](NC(=O)[C@H](CCCCN)NC(=O)[C@H](CCC(=O)O)NC(=O)[C@H](CCCNC(=N)N)NC(=O)CNC(=O)[C@H](CCC(=O)O)NC(=O)[C@H](CC(C)C)NC(C)=O)C(C)C)[C@@H](C)CC)C(=O)N[C@@H](CO)C(=O)N[C@H](C(=O)N[C@@H](Cc1ccccc1)C(=O)N[C@@H](CO)C(=O)N[C@H](CCCCN)C(=O)N[C@@H](CCCNC(=N)N)C(=O)N[C@@H](C)C(=O)N[C@@H](CCCCNC(C)=O)C(N)=O)[C@@H](C)O)C(=O)O)C(=O)O)C(=O)O [compound 16] (Ac-LEGREKVRAK(Ac)I[Aib][Aib]EGK([Suc-X2])STFS[dK]RAK(Ac)-NH2) | 6.8 nM | 88% | 6330 µg/mL (≈ 1560 µM) | 6720 µg/mL (≈ 1660 µM)
3 | CCCCCCCCCCCCCCCC(=O)N[C@@H](CCC(=O)N[C@@H](CCC(=O)N[C@@H](CCC(=O)NCCCOCCOCCOCCCNC(=O)CCC(=O)NCCCOCCOCCOCCCNC(=O)CCC(=O)NCCCOCCOCCOCCCNC(=O)CCC(=O)NCCCOCCOCCOCCCNC(=O)CCC(=O)NCCCC[C@H](NC(=O)CNC(=O)[C@H](CCC(=O)O)NC(=O)[C@@H](NC(=O)C(C)(C)NC(=O)[C@@H](NC(=O)[C@H](CCCCNC(C)=O)NC(=O)[C@H](C)NC(=O)[C@H](CCCNC(=N)N)NC(=O)[C@@H](NC(=O)[C@H](CCCCN)NC(=O)[C@H](CCC(=O)O)NC(=O)[C@H](CCCNC(=N)N)NC(=O)CNC(=O)[C@H](CCC(=O)O)NC(=O)[C@H](CC(C)C)NC(C)=O)C(C)C)[C@@H](C)CC)[C@@H](C)CC)C(=O)N[C@@H](CO)C(=O)N[C@H](C(=O)N[C@@H](Cc1c[nH]c2ccccc12)C(=O)N[C@@H](CO)C(=O)NC(C)(C)C(=O)N[C@@H](CCCNC(=N)N)C(=O)N[C@@H](CCCCN)C(=O)N[C@@H](CCCCNC(C)=O)C(N)=O)[C@@H](C)O)C(=O)O)C(=O)O)C(=O)O [compound 74] (Ac-LEGREKVRAK(Ac)I[Aib]IEGK([Suc-X5])STWS[Aib]RKK(Ac)-NH2) | 0.54 nM | 94% | 7390 µg/mL (≈ 1560 µM) | 8470 µg/mL (≈ 1790 µM)
4 | CCCCCCCCCCCCCCCC(=O)N[C@@H](CCC(=O)N[C@@H](CCC(=O)N[C@@H](CCC(=O)NCCCOCCOCCOCCCNC(=O)CCC(=O)NCCCOCCOCCOCCCNC(=O)CCC(=O)NCCCC[C@H](NC(=O)CNC(=O)[C@H](CCC(=O)O)NC(=O)C(C)(C)NC(=O)C(C)(C)NC(=O)[C@@H](NC(=O)[C@H](CCCCNC(C)=O)NC(=O)[C@H](C)NC(=O)[C@H](CCCNC(=N)N)NC(=O)[C@@H](NC(=O)[C@H](CCCCN)NC(=O)[C@H](CCC(=O)O)NC(=O)[C@H](CCCNC(=N)N)NC(=O)CNC(=O)[C@H](CCC(=O)O)NC(=O)[C@H](CC(C)C)NC(C)=O)C(C)C)[C@@H](C)CC)C(=O)N[C@@H](CO)C(=O)N[C@H](C(=O)N[C@@H](Cc1c[nH]c2ccccc12)C(=O)N[C@@H](CO)C(=O)N[C@H](CCCCN)C(=O)N[C@@H](CCCNC(=N)N)C(=O)N[C@@H](CCCCN)C(=O)N[C@@H](CCCCNC(C)=O)C(N)=O)[C@@H](C)O)C(=O)O)C(=O)O)C(=O)O [compound 18] (Ac-LEGREKVRAK(Ac)I[Aib][Aib]EGK([Suc-X2])STWS[dK]RKK(Ac)-NH2) | 1.54 nM | 92% | 6750 µg/mL (≈ 1630 µM) | 6580 µg/mL (≈ 1590 µM)
5 | CCCCCCCCCCCCCCCC(=O)N[C@@H](CCC(=O)N[C@@H](CCC(=O)N[C@@H](CCC(=O)NCCCOCCOCCOCCCNC(=O)CCC(=O)NCCCOCCOCCOCCCNC(=O)CCC(=O)NCCCOCCOCCOCCCNC(=O)CCC(=O)NCCCOCCOCCOCCCNC(=O)CCC(=O)NCCCC[C@H](NC(=O)CNC(=O)[C@H](CCC(=O)O)NC(=O)C(C)(C)NC(=O)C(C)(C)NC(=O)[C@@H](NC(=O)[C@H](CCCCNC(C)=O)NC(=O)[C@H](C)NC(=O)[C@H](CCCNC(=N)N)NC(=O)[C@@H](NC(=O)[C@H](CCCNC(=N)N)NC(=O)[C@H](CCC(=O)O)NC(=O)[C@H](CCCNC(=N)N)NC(=O)CNC(=O)[C@H](CCC(=O)O)NC(=O)[C@H](CC(C)C)NC(C)=O)C(C)C)[C@@H](C)CC)C(=O)N[C@@H](CO)C(=O)N[C@H](C(=O)N[C@@H](Cc1c[nH]c2ccccc12)C(=O)N[C@@H](CO)C(=O)NC(C)(C)C(=O)N[C@@H](CCCNC(=N)N)C(=O)N[C@@H](CCCNC(=N)N)C(=O)N[C@@H](CCCCNC(C)=O)C(N)=O)[C@@H](C)O)C(=O)O)C(=O)O)C(=O)O [compound 75] (Ac-LEGRERVRAK(Ac)I[Aib][Aib]EGK([Suc-X5])STWS[Aib]RRK(Ac)-NH2) | 0.19 nM | 97% | 8580 µg/mL (≈ 1800 µM) | 9560 µg/mL (≈ 2010 µM)
6 | CCCCCCCCCCCCCCCC(=O)N[C@@H](CCC(=O)N[C@@H](CCC(=O)N[C@@H](CCC(=O)NCCCOCCOCCOCCCNC(=O)CCC(=O)NCCCOCCOCCOCCCNC(=O)CCC(=O)NCCCOCCOCCOCCCNC(=O)CCC(=O)NCCCC[C@H](NC(=O)CNC(=O)[C@H](CCC(=O)O)NC(=O)C(C)(C)NC(=O)C(C)(C)NC(=O)[C@@H](NC(=O)[C@H](CCCCNC(C)=O)NC(=O)[C@H](C)NC(=O)[C@H](CCCNC(=N)N)NC(=O)[C@@H](NC(=O)[C@H](CCC(N)=O)NC(=O)[C@H](CCC(=O)O)NC(=O)[C@H](CCCNC(=N)N)NC(=O)CNC(=O)[C@H](CCC(=O)O)NC(=O)[C@H](CC(C)C)NC(C)=O)C(C)C)[C@@H](C)CC)C(=O)N[C@@H](CO)C(=O)N[C@H](C(=O)N[C@@H](Cc1ccccc1)C(=O)N[C@@H](CO)C(=O)N[C@@](C)(CCCCN)C(=O)N[C@@H](CCCNC(=N)N)C(=O)N[C@@H](C)C(=O)N[C@@H](CCCCNC(C)=O)C(N)=O)[C@@H](C)O)C(=O)O)C(=O)O)C(=O)O [compound 25] (Ac-LEGREQVRAK(Ac)I[Aib][Aib]EGK([Suc-X1])STFS[αMeK]RAK(Ac)-NH2) | 28.7 nM | 100% | 6580 µg/mL (≈ 1510 µM) | 6750 µg/mL (≈ 1550 µM)

Source: patent publication US11725036B2, “Modified lipidated relaxin B chain peptides and their therapeutic use” (Sanofi, priority 2018, dated 2023)
